Results from PubChem BioAssay (NCI).
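Compound exposure: 48 hours, 5 concentrations, 96-well plates. GI50: concentration for 50% inhibition of growth. TGI: concentration producing complete growth inhibition.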

Tests used:
Assay in all cases: DTP human tumour cell line panel, 48 h
BT-549 breast = system: BT-549 breast
CCRF-CEM leukemia = system: CCRF-CEM leukemia
HCT-15 colon = system: HCT-15 colon
HOP-62 NSCLC = system: HOP-62 NSCLC
NCI-H23 lung = system: NCI-H23 lung
OVCAR-8 ovarian = system: OVCAR-8 ovarian
RXF 393 renal = system: RXF 393 renal
SK-OV-3 ovarian = system: SK-OV-3 ovarian
MALME-3M melanoma = system: MALME-3M melanoma
SR leukemia = system: SR leukemia

SMILES	GI50 (BT-549 breast)	TGI (BT-549 breast)	GI50 (CCRF-CEM leukemia)	TGI (CCRF-CEM leukemia)	GI50 (HCT-15 colon)	TGI (HCT-15 colon)	GI50 (HOP-62 NSCLC)	TGI (HOP-62 NSCLC)	GI50 (NCI-H23 lung)	TGI (NCI-H23 lung)	GI50 (OVCAR-8 ovarian)	TGI (OVCAR-8 ovarian)	GI50 (RXF 393 renal)	TGI (RXF 393 renal)	GI50 (SK-OV-3 ovarian)	TGI (SK-OV-3 ovarian)	TGI (MALME-3M melanoma)	GI50 (MALME-3M melanoma)	TGI (SR leukemia)
COc1ccc(C(=O)C(CN(C)C)CN(C)C)cc1	15.3 µM	28.8 µM	1.39 µM	5.13 µM	2.47 µM	6.85 µM	17.8 µM	32.9 µM	14.2 µM	41 µM	3.14 µM	22.4 µM	1.55 µM	3.8 µM	20.2 µM	59.5 µM	–	–	–
CC(C)N(C(=O)C12C3C4C5(C#N)C3C1(C#N)C5C42C#N)C(C)C (centres undefined)	–	–	–	> 100 µM	–	–	–	> 100 µM	–	> 100 µM	–	> 100 µM	–	–	–	> 100 µM	> 100 µM	–	–
N#C/C(=C\c1cc(O)cc(O)c1)C(N)=O	–	–	–	> 100 µM	–	> 100 µM	–	> 100 µM	–	> 100 µM	–	> 100 µM	–	> 100 µM	–	> 100 µM	> 100 µM	–	–
CC(=O)O[C@@H]1C2CCC3C(CC[C@@]4(C)C3CC[C@@H]4C(C)N(C)C)[C@@]2(C)CC[C@@H]1NC(=O)C=C(C)C (some centres undefined)	6.31 µM	22.5 µM	2.07 µM	6.59 µM	1.39 µM	3.45 µM	2.25 µM	5.62 µM	3.13 µM	14 µM	4.64 µM	> 35.7 µM	1.46 µM	3.21 µM	3.61 µM	10.3 µM	3.89 µM	1.91 µM	–
Cc1c(C)n(CCCN2CCN(C)CC2)c2ccc(Oc3cccc(C(=O)N4CCN(CCc5ccc(F)cc5)CC4)c3)cc12	1.58 µM	3.19 µM	–	–	1.59 µM	3.09 µM	1.63 µM	3.34 µM	1.85 µM	3.49 µM	–	–	1.59 µM	3.06 µM	1.91 µM	3.62 µM	3.32 µM	1.78 µM	–
O=C(CN(/C=C/C(=O)C(F)(F)F)c1ccc(Cl)cc1)c1ccc(Cl)cc1	17.6 µM	43.9 µM	5.11 µM	24.4 µM	6.83 µM	20.4 µM	32.8 µM	> 100 µM	6.3 µM	20.9 µM	10.8 µM	26.9 µM	10.2 µM	35.9 µM	17.9 µM	33.5 µM	50.8 µM	15.5 µM	–
NC(=O)NNC(=O)CCn1[nH]c(=O)c(Cl)c(Cl)c1=O	–	–	–	> 100 µM	–	> 100 µM	–	> 100 µM	–	> 100 µM	–	> 100 µM	–	> 100 µM	–	> 100 µM	> 100 µM	–	–
O=c1c2c(nc3n1CCS3)[nH]c1cc([N+](=O)[O-])ccc12	–	–	> 100 µM	> 100 µM	> 100 µM	> 100 µM	> 100 µM	> 100 µM	> 100 µM	> 100 µM	> 100 µM	> 100 µM	92.6 µM	> 100 µM	> 100 µM	> 100 µM	> 100 µM	> 100 µM	–
C/C=C(\C)c1cc(=O)c2c(C)cc3c(c2o1)C(=O)c1c(O)c(C2CC(C)(N(C)C)C(OC(C)=O)C(C)O2)cc(C2CC(N(C)C)C(O)C(C)O2)c1C3=O (centres undefined)	–	3.42 µM	–	> 50 µM	–	12.2 µM	–	6.45 µM	–	> 11.9 µM	–	> 17.5 µM	–	1.27 µM	–	> 50 µM	1.13 µM	–	–
CC(C)(C)C1=CC(=C(P(=O)(O)O)P(=O)(O)O)C=C(C(C)(C)C)C1=O	–	–	–	> 50 µM	–	> 50 µM	–	> 50 µM	–	> 50 µM	–	> 50 µM	–	–	–	> 50 µM	> 50 µM	–	–
CCOC(=O)Cc1c(C)c2cc(C(=O)c3ccccc3)c(O)cc2oc1=O	–	59.8 µM	–	> 100 µM	–	> 100 µM	–	> 100 µM	–	46.6 µM	–	> 100 µM	–	> 100 µM	–	–	62.1 µM	–	–
COc1cc(/C=C/c2cc(/C=C/c3ccc(O)c(OC)c3)n(C(=O)c3ccc(Cl)cc3)n2)ccc1O	1.83 µM	8.32 µM	1.64 µM	> 100 µM	1.54 µM	26.1 µM	2.08 µM	6.92 µM	2.35 µM	7.95 µM	2.8 µM	8.14 µM	–	–	1.83 µM	4.35 µM	10.1 µM	1.31 µM	–
COc1ccc(Cc2c3cc(O)c(=O)cc-3ccn2C)cc1	–	–	–	> 76.3 µM	–	–	–	82.4 µM	–	> 100 µM	–	> 100 µM	–	73.7 µM	–	> 100 µM	> 88.1 µM	–	37 µM
C=CCC1(CN(C)C)CC/C(=C\c2ccc(OC)cc2)C1=O (centres undefined)	–	–	–	> 100 µM	–	> 100 µM	–	> 100 µM	–	> 100 µM	–	> 100 µM	–	> 100 µM	–	–	> 100 µM	–	–
NNC(=O)C(=O)N/N=C(\CCCC(=O)Nc1ccc(Cl)cc1)CC(=O)c1ccc(F)cc1	–	–	–	> 100 µM	–	–	–	> 100 µM	–	> 100 µM	–	> 100 µM	–	> 100 µM	–	–	> 100 µM	–	–
C=CCNC(=O)NCCCCC(NC(C)=O)C(=O)NCc1ccccc1 (centres undefined)	–	–	–	> 100 µM	–	> 100 µM	–	> 100 µM	–	> 100 µM	–	> 100 µM	–	> 100 µM	–	> 100 µM	> 100 µM	–	–
OC(CNc1ccnc2cc(Cl)ccc12)CNc1ccnc2cc(Cl)ccc12	1.67 µM	3.13 µM	–	–	17.2 µM	44.6 µM	3.17 µM	14.7 µM	2.79 µM	7.77 µM	–	–	1.7 µM	3.19 µM	1.92 µM	3.89 µM	–	–	–
CC1(C)OC2C(CCP(=O)(O)O)OC(c3nc(C(N)=O)cs3)C2O1 (centres undefined)	–	–	–	> 100 µM	–	> 100 µM	–	–	–	> 100 µM	–	> 100 µM	–	> 100 µM	–	> 100 µM	> 100 µM	–	–
CC1=N/C(=C/c2ccc3c(c2)OCO3)C(=O)O1	–	–	–	> 100 µM	–	> 100 µM	–	–	–	> 100 µM	–	> 100 µM	–	> 100 µM	–	> 100 µM	> 100 µM	–	–
